Data published in US20260207570A1, “OPTIMIZED DOSING OF LERIGLITAZONE” (MINORYX THERAPEUTICS S.L., priority 2022, published 2026).
Several values for one entry are separate records, joined by “and”; a condition that tells them apart may be missing. Equal entries are not always repeated.

Key:
[1] = PBPK model input parameters: physicochemical
[2] = Population pharmacokinetic model of studies MT-1-01, MT-2-01, MT-2-03; type: in vivo, human
From the text: MT-1-01 (healthy volunteers), MT-2-01 (adult men with adrenomyeloneuropathy (AMN), MT-2-03 (men, women≥12 years with Friedreich's Ataxia).
A total of 2140 valid plasma concentration measurements from 130 individuals were used in the analysis. Full PK profiles were available only from MT-1-01. In MT-2-03 only pre-dose (trough) concentrations were taken at multiple visits, while in MT-2-01 also sparse post-dose samples were taken. Less than 1% of all samples were below the limit of quantification.
2. Structural model-development using only data from healthy volunteers (MT-1-01) and inclusion of key structural covariates (food, body weight).
3. Re-estimation of parameters on the full analysis dataset (MT-1-01, MT-2-01, MT-2-03). Finalization of base model.
4. Stepwise automatic covariate modeling (SCM) using the base model.
NONMEM v7.5 was used for the population modelling. The RxODE package (v0.9.2) for R (v4.0.2) was used for the simulations.
Automated stepwise covariate modeling (SCM) using a forward addition/backward deletion procedure as implemented in PsN, Karlsson and Savic, C/in Pharmacol Ther 82:17-20 (2008), was applied to the base model on the complete analysis dataset. To improve the computation time of the SCM, PsN generates a linearized form of the model applying a Taylor-transformation on which then the covariate function is applied. Anderson et al., Annu Rev Pharmacol Toxicol 48:303-332 (2008). The final model from the SCM procedure was then rerun in its original, untransformed form.
The following covariates were tested in the model for their association with CL and relative bioavailability (F): • BMI • Height • Age • Ethnicity (Hispanic yes/no) • Sex

[3] = Biliary clearance in sandwich-cultured hepatocytes; type: in vitro ADME; conditions: sandwich-cultured hepatocytes
[4] = tested on: sandwich-cultured hepatocytes; experiment: Biliary clearance in sandwich-cultured hepatocytes; type: in vitro ADME; conditions: after scaling up
[5] = target: T1, CYP2C8 (Homo sapiens, UniProt P10632); experiment: CYP2C8 contribution to clearance (fm, CLint) for the PBPK model; conditions: before accounting for biliary and renal clearance
T1 sequence (P10632 1-490): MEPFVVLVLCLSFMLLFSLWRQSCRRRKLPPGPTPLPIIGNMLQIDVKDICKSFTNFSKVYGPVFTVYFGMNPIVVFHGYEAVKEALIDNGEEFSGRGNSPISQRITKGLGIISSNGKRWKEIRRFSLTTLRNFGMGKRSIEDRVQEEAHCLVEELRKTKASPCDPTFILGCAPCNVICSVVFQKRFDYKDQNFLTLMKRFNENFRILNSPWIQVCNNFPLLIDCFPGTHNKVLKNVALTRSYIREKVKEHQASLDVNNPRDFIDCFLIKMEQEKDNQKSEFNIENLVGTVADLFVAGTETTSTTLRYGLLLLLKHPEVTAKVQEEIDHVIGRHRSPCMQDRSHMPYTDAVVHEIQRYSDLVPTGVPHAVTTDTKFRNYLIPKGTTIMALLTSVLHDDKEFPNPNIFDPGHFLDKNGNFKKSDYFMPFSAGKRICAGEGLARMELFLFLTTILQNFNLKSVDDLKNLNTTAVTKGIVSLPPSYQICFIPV
From the text: CYP2C8 and CYP3A4 were identified in vitro as the major contributing enzymes of leriglitazone with CYP2C8 mostly responsible for the formation of the main metabolite M3. Kinetic parameters of human CYP2C8 and CYP3A4 mediated metabolism of leriglitazone were studied in in vitro studies using recombinant CYP3A4 and CYP2C8 enzymes (ADMESCOPE, Finland). […] As the disappearance of leriglitazone was very slow especially at high initial concentrations, the accuracy of the fit was not as good as based on M3 formation. […] Thus, it was not possible to fit the kinetic parameters Km and Vmax.

[6] = Phase 1 safety and tolerability (treatment-emergent adverse events); type: in vivo, human
Experimental: Study design: A phase 1, randomized, double blind, placebo-controlled, single-center clinical study in 33 male healthy volunteers (HV) (19-54 years, 63.2-95.7 Kg) was conducted with leriglitazone HCl and divided in two parts: a single ascending dose (SAD) with three dose levels (30, 90 and 270 mg) in fasted conditions, followed with two dose levels (90 and 270 mg) in fed conditions; a multiple ascending dose (MAD) with a double-blind, parallel-design with two dose levels (135 and 270 mg) for 8 days and a separate cohort of subjects in an open-label parallel design with two dose levels (135 and 270 mg) including cerebrospinal fluid (CSF) collection on day 8. In the fasted conditions a fasting period of at least 4 hours was required before obtaining plasma samples. The food effect (FE) was assessed by comparing fasted with fed conditions (dosing after a high-fat breakfast per FDA definition with a calculated caloric content of 918 kcal). In the MAD part (fed) the medication was taken before a normal breakfast. Leriglitazone HCl was supplied by ChemConnection and an oral suspension of leriglitazone (20% w/v kleptose, 2% ethanol in 100 mM phosphate buffer pH=7.8) at 6 mg/ml was used in the study. Safety: Safety and tolerability assessments consisted of adverse events (AEs), clinical laboratory, vital signs, 12-lead electrocardiogram (ECG), and physical examination.

- Compound type [1]: Diprotic Base
- logP [1]: 2.47
- pKa ([1]; two values): 4.97
- lower CL in women ([2]; popPK covariate sex): 14.7%
- reduction of absorption rate when taken with food ([2]; popPK estimate): 82.9%
- reduction of bioavailability by food ([2]; popPK estimate): 4.8% and < 5%
- typical rate of absorption ([2]; taken without food, popPK estimate): 5.2 h⁻¹
- hepatocyte CLint [3]: 0.358 µL/min/1e6 cells
- microsomal CLint [3]: 0.5 µL/min/mg
- biliary clearance as fraction of total clearance (feBIL) [4]: 19.5%
- share of metabolism, CYP2C8 [5]: 63.7%
Compound: CC(O)c1ccc(CCOc2ccc(CC3SC(=O)NC3=O)cc2)nc1 (centres unmarked) [Leriglitazone, 5-[[4-[2-[5-(1-hydroxyethyl)pyridin-2-yl]ethoxy]phenyl]methyl]-1,3-thiazolidine-2,4-dione]
- Gastrointestinal disorders: E ([6]; 135 mg, N = 9): 2
- Gastrointestinal disorders: n (%) ([6]; 135 mg, N = 9): 1 (11)
- General disorders and administration site conditions: E ([6]; 135 mg, N = 9): 1
- General disorders and administration site conditions: n (%) ([6]; 135 mg, N = 9): 1 (11)
- Metabolism and nutrition disorders: E ([6]; 135 mg, N = 9): 1
- Metabolism and nutrition disorders: n (%) ([6]; 135 mg, N = 9): 1 (11)
- Musculoskeletal and connective tissue disorders: E ([6]; 135 mg, N = 9): 3
- Musculoskeletal and connective tissue disorders: n (%) ([6]; 135 mg, N = 9): 3 (33)
- Nervous system disorders: E ([6]; 135 mg, N = 9): 5
- Nervous system disorders: n (%) ([6]; 135 mg, N = 9): 3 (33)
- Renal and urinary disorders: E ([6]; 135 mg, N = 9): 1
- Renal and urinary disorders: n (%) ([6]; 135 mg, N = 9): 1 (11)
- TEAEs Total: E ([6]; 135 mg, N = 9): 13
- TEAEs Total: n (%) ([6]; 135 mg, N = 9): 5 (56)
- Eye disorders: E ([6]; 270 mg, N = 8): 2
- Eye disorders: n (%) ([6]; 270 mg, N = 8): 1 (13)
- Gastrointestinal disorders: E ([6]; 270 mg, N = 8): 4
- Gastrointestinal disorders: n (%) ([6]; 270 mg, N = 8): 3 (38)
- General disorders and administration site conditions: E ([6]; 270 mg, N = 8): 1
- General disorders and administration site conditions: n (%) ([6]; 270 mg, N = 8): 1 (13)
- Infections and infestations: E ([6]; 270 mg, N = 8): 2
- Infections and infestations: n (%) ([6]; 270 mg, N = 8): 2 (25)
- Musculoskeletal and connective tissue disorders: E ([6]; 270 mg, N = 8): 1
- Musculoskeletal and connective tissue disorders: n (%) ([6]; 270 mg, N = 8): 1 (13)
- Nervous system disorders: E ([6]; 270 mg, N = 8): 3
- Nervous system disorders: n (%) ([6]; 270 mg, N = 8): 3 (38)
- Respiratory, thoracic and mediastinal disorders: E ([6]; 270 mg, N = 8): 3
- Respiratory, thoracic and mediastinal disorders: n (%) ([6]; 270 mg, N = 8): 3 (38)
- TEAEs Total: E ([6]; 270 mg, N = 8): 16
- TEAEs Total: n (%) ([6]; 270 mg, N = 8): 8 (100)
